# Experimental data reported in publication PMC7495477, “IMPROvER: the Integral Membrane Protein Stability Selector” (Scientific Reports, 2020).
# Target: T1, ClPPase (membrane-bound pyrophosphatase from Clostridium leptum) ([Clostridium] leptum, UniProt A7VNH8)
# T1 construct: gene hppA; N-terminal 8xHis-tag, superfolder GFP and TEV site kept; synthetic gene in pDDGFP; expressed in S. cerevisiae FGY217 membranes; about 700 residues; dimer
# T1 sequence (A7VNH8 1-700): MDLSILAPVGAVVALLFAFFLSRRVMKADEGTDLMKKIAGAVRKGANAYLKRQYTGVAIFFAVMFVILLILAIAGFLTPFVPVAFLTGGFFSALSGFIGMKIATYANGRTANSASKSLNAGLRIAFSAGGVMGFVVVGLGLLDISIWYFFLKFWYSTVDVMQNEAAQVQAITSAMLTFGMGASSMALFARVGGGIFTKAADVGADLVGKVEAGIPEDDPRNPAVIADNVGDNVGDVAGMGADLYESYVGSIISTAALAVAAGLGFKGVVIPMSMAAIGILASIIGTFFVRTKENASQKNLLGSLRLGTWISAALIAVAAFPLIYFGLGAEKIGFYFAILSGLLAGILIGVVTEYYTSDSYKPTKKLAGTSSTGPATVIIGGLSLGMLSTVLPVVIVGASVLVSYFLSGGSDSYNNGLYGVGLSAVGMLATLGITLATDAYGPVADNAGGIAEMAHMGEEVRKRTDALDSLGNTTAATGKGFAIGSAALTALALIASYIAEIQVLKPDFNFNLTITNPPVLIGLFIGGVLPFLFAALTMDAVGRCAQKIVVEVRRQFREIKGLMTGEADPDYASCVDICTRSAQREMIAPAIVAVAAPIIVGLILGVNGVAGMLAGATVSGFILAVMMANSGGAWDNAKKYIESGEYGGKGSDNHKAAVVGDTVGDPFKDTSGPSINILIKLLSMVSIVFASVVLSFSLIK
# Test: colorimetric phosphate release assay on yeast membranes
# Type: biochemical
# Conditions: tris-HCl pH 8, MgCl2, KCl, NaCl, NaF, gramicidin, 10 uL of 2 mM tetrabasic sodium pyrophosphate in 50 uL, 30 C, 10 min
structure (smiles),measurement,value
O=P(O)(O)OP(=O)(O)O [PPi],colorimetric phosphate release assay on yeast membranes,The hydrolytic activity of wild-type and variant ClPPase in the membrane was assessed
